From patent publication US20100040544A1, “METHOD FOR MANAGING PATIENTS WITH CANCER” (priority 2006, published 2010)

Assay: T1 relaxation in human full blood
Format: physicochemical
Settings: in human full blood at 37° C.

- T1 relaxation: about 42 s
SMILES: CC(=O)[13C](=O)O [^13C1-pyruvate]
